Earlier results, collected in patent US20240174620A1, “SOLID FORMS OF SAFLUFENACIL-SODIUM AND SAFLUFENACIL-POTASSIUM, PROCESS OF PREPARATION AND USE THEREOF” (ADAMA AGAN LTD., priority 2021, published 2024).
Where two headings read alike, the source gives them in different places.

Tests used:
[1] = not given; remark: listed apart in the source

Q: Which results are given for `CC(C)N(C)S(=O)(=O)NC(=O)c1cc(-n2c(=O)cc(C(F)(F)F)n(C)c2=O)c(F)cc1Cl` [Saflufenacil]?
A: pKa: 4.41; solubility in 1-octanol ([1]; 1-octanol, 20° C.): < 0.01 g/100 mL; solubility in acetone ([1]; acetone, 20° C.): 27.5 g/100 mL; solubility in acetonitrile ([1]; acetonitrile, 20° C.): 19.4 g/100 mL; solubility in ethyl acetate ([1]; ethyl acetate, 20° C.): 6.55 g/100 mL; solubility in isopropyl alcohol ([1]; isopropyl alcohol, 20° C.): 0.25 g/100 mL; solubility in methanol ([1]; methanol, 20° C.): 2.98 g/100 mL; solubility in n-heptane ([1]; n-heptane, 20° C.): < 0.005 g/100 mL; solubility in tetrahydrofurane ([1]; tetrahydrofurane, 20° C.): 36.2 g/100 mL; solubility in toluene ([1]; toluene, 20° C.): 0.23 g/100 mL; solubility in water ([1]; pH 5, 20° C.): 0.0025 g/100 mL; solubility in water ([1]; pH 7, 20° C.): 0.21 g/100 mL
